Assay results published in PubChem BioAssay (NCI).
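Exposure lasted 48 hours, with cells grown in 96-well plates and compounds tested at five concentrations. At the GI50, growth is halved. The concentration for full growth arrest is given as TGI.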

Columns and labels:
Assay in all cases: DTP human tumour cell line panel, 48 h
SN12C renal = tested on: SN12C renal
786-0 renal = tested on: 786-0 renal
MDA-N = tested on: MDA-N
COLO 205 colon = tested on: COLO 205 colon
SK-MEL-28 melanoma = tested on: SK-MEL-28 melanoma
K-562 leukemia = tested on: K-562 leukemia
TK-10 renal = tested on: TK-10 renal
SW-620 colon = tested on: SW-620 colon
SF-295 CNS = tested on: SF-295 CNS

Row | Compound | TGI (SN12C renal) [µM] | TGI (786-0 renal) [µM] | TGI (MDA-N) [µM] | TGI (COLO 205 colon) [µM] | TGI (SK-MEL-28 melanoma) [µM] | TGI (K-562 leukemia) [µM] | TGI (TK-10 renal) [µM] | TGI (SW-620 colon) [µM] | TGI (SF-295 CNS) [µM] | GI50 (TK-10 renal) [µM]
1 | COc1ccc2nc3ccc(OC)cc3c(SCc3ccccc3)c2c1 | > 100 | > 100 | > 26.3 | > 100 | > 100 | > 100 | > 100 | > 100 | > 100 | –
2 | COC(=O)[C@H](Cc1ccc(OC(C)(C)C)cc1)N[C@H](C)C(=O)N[C@@H](Cc1ccccc1)C(=O)OCc1ccccc1 | > 100 | > 100 | > 100 | > 100 | > 100 | 63.5 | > 100 | > 100 | > 100 | –
3 | O=C(O)c1ccc(C2SCc3nc4ccccc4n32)cc1 (configuration not stated) | > 100 | > 100 | > 100 | – | > 100 | > 100 | > 100 | > 100 | > 100 | –
4 | O=C(CSc1nc2ccc(I)cc2c(=O)n1Cc1ccccc1)NNC(=O)c1ccccc1 | > 100 | 21 | > 100 | > 100 | 36.6 | 15.5 | 27.4 | > 100 | 30.7 | –
5 | C[C@@H](NC(=O)c1ccc(CNC(=O)/C=C/c2cccc(Oc3ccccc3)c2)cc1)c1ccccc1 | > 100 | 35.4 | > 100 | > 100 | > 100 | > 100 | > 89.2 | > 100 | > 100 | –
6 | O=C(c1ccc(Cl)cc1)N(C(=S)OCc1ccccn1)c1ccccc1 | > 100 | > 100 | > 100 | > 100 | > 100 | > 100 | > 100 | > 100 | > 100 | –
7 | CCOC(=O)c1[nH]cc(C)c1-c1ccc2c(-c3ccccc3)nc3ccccc3n12 | 15.2 | 12.8 | 14.1 | 14.2 | 14.3 | 9.13 | 15.2 | 16.5 | 13.6 | –
8 | O=C(NCCNCCCNC(=O)c1cc(-c2ccccc2)nc2ccccc12)c1cccc(OCc2ccccc2)c1OCc1ccccc1 | 3.24 | 3.09 | 3.05 | 3.11 | 3.25 | 3.48 | 3.17 | 3.35 | 3.03 | –
9 | CCOC(=O)C(=O)/C(=C/N1C(=O)CC(=O)NC1=S)C(=O)OCC | > 100 | > 100 | > 100 | > 100 | > 100 | > 100 | > 100 | > 100 | > 100 | > 100
10 | CCOP(=O)(OCC)/C(C#N)=C/c1cnc[nH]1 | > 100 | > 100 | – | > 100 | > 100 | > 100 | > 100 | > 100 | > 100 | –
11 | C/C(=N\Nc1nc2cccnc2s1)c1ccccn1 | > 100 | > 100 | > 100 | > 100 | > 100 | > 100 | – | > 100 | 3.48 | –
